The test system of one test is trachealis muscle tissue. Briefly: Test for Inhibition of Calcium-Dependent Smooth Muscle Contraction (trachea). Type of test: cell-based. The note with it: Canis lupus familiaris; dog tracheal rings, 50 mM KCl contraction. As for the experimental part:
The trachea and the aorta from dogs sacrificed by excess KCl injection are stored overnight at 4° C. in oxygenated Krebs-Henseleit buffer. Tracheal rings, one cartilage segment wide (5-10 mm), are cut starting from the bronchial end. Rings of aorta tissue of the same width are also prepared. After cutting the cartilage, the trachealis muscle tissue and the aorta tissue are suspended in oxygenated Krebs-Henseleit buffer at 37° C. in a 25 ml tissue bath. After a 60-minute equilibration period, the tissues are challenged with 10 μM carbachol. After 5 minutes, the tissues are rinsed and allowed to rest 50 minutes. The tissues are then challenged with 50 mM KCl and, after 30 minutes, the contractions are quantitated. The tissues are then rinsed and re-equilibrated for 50 minutes. Test compounds are then added for 10 minutes, and the tissue is rechallenged with 50 mM KCl. After 30 minutes, the contraction is recorded. A percent inhibition of smooth muscle contraction can then be calculated.

The next test deals with T1, calcium channel (Oryctolagus cuniculus, UniProt P15381).
T1 construct: from tissue; host or cells: rabbit heart membrane preparation
Briefly: Assay for Inhibition of Nitrendipine Binding (3H-nitrendipine, heart membranes). Conditions: 3H-nitrendipine displacement, rabbit heart membranes. The procedure:
Female, New Zealand white rabbits (1-2 kg) are sacrificed by cervical dislocation, and the heart is immediately removed, cleaned and chopped into small pieces. The tissue is homogenized in 5× times volume of 0.05M Hepes buffer, pH 7.4. The homogenate is centrifuged at 4000 g for 10 minutes, and the supernatant is re-centrifuged at 42,000×g for 90 minutes. The resulting membrane pellet is resuspended (0.7 ml/g weight) in 0.05M Hepes, pH 7.4 and stored at […] until used. Each tube of the binding assay contains ^3H-nitrendipine (0.05-0.50 nM), buffer, membranes (0.10 ml), and test compound in a total volume of 1.0 ml. After 90 minutes at 4° C., the bound nitrendipine is separated from the unbound by filtration on Whatman GF/C filters. After rinsing, the filters are dried and counted in a liquid scintillation counter.
Non-specific binding of ^3H-nitrendipine (that amount bound in the presence of excess unlabelled nitrendipine) is subtracted from the total bound to obtain specifically bound radiolabeled nitrendipine. The amount of specifically bound nitrendipine in the presence of a test compound is compared to that amount bound in the absence of a compound. A percent displacement (or inhibition) can then be calculated.

27 compounds from patent publication US20020026051A1, “Dithiepino [6,5-b]pyridines, and related compositions and methods” (priority 1999, published 2002) can be followed below.

T1 sequence (P15381 whole entry, other chains not shown): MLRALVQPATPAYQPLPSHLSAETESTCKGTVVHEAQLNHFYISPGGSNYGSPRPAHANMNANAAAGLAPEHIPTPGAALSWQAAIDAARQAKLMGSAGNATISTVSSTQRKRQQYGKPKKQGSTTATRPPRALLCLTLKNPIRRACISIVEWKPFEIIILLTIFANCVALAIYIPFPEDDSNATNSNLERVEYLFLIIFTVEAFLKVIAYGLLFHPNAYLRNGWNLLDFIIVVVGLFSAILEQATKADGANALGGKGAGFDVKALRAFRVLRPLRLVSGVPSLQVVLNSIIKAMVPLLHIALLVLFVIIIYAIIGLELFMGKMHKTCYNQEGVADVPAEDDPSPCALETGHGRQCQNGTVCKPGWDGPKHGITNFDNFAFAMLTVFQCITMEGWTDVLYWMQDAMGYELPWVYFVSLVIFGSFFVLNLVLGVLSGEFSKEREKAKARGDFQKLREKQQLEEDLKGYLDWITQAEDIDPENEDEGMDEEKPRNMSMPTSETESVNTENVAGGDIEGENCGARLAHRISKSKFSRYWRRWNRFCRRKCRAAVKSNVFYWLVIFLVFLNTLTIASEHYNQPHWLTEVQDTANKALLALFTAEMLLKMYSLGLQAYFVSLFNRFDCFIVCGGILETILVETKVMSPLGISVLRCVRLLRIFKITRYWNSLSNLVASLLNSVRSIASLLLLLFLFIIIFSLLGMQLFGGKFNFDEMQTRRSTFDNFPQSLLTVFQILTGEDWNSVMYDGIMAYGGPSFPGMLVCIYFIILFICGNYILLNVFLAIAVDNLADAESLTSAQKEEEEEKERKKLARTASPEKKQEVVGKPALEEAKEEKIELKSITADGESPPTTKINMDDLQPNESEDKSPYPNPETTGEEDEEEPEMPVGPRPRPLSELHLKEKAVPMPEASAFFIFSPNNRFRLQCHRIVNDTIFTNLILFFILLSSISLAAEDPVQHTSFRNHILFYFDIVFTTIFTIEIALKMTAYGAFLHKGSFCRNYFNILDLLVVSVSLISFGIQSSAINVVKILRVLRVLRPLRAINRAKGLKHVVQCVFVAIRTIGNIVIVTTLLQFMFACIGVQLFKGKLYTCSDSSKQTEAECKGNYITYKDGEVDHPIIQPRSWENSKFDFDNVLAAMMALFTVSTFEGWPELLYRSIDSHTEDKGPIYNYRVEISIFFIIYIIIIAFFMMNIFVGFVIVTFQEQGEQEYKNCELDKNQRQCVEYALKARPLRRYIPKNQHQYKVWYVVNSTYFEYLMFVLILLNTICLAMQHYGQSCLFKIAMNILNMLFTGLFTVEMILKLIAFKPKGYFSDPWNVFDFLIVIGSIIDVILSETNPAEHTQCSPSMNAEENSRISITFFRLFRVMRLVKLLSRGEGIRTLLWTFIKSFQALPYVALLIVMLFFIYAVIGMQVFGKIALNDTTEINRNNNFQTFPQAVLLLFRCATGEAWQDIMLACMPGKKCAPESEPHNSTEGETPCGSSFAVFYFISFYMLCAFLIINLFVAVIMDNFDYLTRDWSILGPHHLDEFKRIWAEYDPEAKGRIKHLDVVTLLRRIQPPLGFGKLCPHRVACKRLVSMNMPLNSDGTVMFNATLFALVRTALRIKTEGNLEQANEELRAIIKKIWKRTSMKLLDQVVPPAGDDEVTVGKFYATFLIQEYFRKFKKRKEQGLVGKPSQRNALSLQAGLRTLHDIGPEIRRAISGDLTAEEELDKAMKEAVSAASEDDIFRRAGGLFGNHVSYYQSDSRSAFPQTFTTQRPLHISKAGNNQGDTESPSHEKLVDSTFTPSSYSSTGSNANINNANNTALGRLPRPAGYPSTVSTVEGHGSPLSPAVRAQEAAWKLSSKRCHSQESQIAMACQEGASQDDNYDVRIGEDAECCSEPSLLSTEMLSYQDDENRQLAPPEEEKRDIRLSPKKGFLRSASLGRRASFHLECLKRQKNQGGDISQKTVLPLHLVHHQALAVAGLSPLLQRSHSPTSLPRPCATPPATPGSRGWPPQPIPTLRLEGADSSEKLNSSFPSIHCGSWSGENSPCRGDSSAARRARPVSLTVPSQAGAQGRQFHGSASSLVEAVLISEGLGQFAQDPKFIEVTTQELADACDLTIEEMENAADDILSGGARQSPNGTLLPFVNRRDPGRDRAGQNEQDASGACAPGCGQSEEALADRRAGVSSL
T1 sequence (P13806 27-960 partner limits assumed, other chains not shown): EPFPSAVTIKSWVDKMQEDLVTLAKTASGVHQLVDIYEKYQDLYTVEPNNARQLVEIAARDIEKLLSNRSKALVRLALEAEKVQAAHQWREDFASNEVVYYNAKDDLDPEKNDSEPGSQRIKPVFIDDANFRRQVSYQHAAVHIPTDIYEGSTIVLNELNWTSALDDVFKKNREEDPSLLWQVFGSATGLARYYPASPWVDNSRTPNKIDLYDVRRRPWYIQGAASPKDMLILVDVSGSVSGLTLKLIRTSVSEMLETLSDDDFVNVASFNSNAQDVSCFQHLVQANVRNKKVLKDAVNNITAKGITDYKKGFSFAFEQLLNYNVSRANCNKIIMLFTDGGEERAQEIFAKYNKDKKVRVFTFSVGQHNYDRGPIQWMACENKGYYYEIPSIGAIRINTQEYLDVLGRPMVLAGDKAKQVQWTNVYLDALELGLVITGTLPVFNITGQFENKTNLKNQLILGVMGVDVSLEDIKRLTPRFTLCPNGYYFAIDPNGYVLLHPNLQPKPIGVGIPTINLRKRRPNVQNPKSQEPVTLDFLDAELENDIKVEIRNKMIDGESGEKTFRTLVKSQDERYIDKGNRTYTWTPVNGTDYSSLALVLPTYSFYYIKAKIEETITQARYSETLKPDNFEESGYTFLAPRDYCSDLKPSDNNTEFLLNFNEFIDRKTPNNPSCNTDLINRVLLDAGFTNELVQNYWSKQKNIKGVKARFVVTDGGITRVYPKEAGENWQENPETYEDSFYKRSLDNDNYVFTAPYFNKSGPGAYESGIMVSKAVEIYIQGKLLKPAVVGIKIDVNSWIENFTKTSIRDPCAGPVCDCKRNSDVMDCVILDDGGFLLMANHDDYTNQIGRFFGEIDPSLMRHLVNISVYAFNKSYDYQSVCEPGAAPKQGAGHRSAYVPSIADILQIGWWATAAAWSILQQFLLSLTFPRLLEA
T1 sequence (P13806 961-1106 partner limits assumed, other chains not shown): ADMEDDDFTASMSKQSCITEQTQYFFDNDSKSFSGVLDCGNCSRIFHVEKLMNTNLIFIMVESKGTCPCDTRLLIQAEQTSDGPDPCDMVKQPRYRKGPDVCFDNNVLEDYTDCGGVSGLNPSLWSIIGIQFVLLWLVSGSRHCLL

As to `CC1=C(C(=O)OCCN(C)Cc2ccccc2)[C@@H](c2c(F)cccc2Cl)C2=C(CS(=O)(=O)CCS2(=O)=O)N1` (single isomer, unassigned) [Compound 2, 5H-1,4-Dithiepino[6,5-b]pyridine-8-carboxylic acid, 9-(2-chloro-6-fluorophenyl)-2,3,6,9-tetrahydro-7-methyl-2-[methyl(phenylmethyl)amino]ethyl ester 1,1,4,4-tetraoxide], the concentration for half-maximal inhibition (IC50) with trachealis muscle tissue is 660 nM; at calcium channel (Tables 1-5), 43 nM.

`CC1=C(C(=O)OCCN(C)Cc2ccccc2)C(c2c(F)cccc2Cl)C2=C(CS(=O)(=O)CCS2(=O)=O)N1` (stereo not drawn) [Compound 1, 5H-1,4-Dithiepino[6,5-b]pyridine-8-carboxylic acid, 9-(2-chloro-6-fluorophenyl)-2,3,6,9-tetrahydro-7-methyl-2-[methyl(phenylmethyl)amino]ethyl ester 1,1,4,4-tetraoxide]: the 50% inhibitory concentration (IC50) with trachealis muscle tissue amounted to 650 nM; on calcium channel (Tables 1-5), 74 nM. `CC1=C(C(=O)OCCN(C)Cc2ccccc2)C(c2c(F)c(F)c(F)c(F)c2F)C2=C(CS(=O)(=O)CCCS2(=O)=O)N1` (stereo not drawn) [Compound 27, 2H,6H-1,5-Dithiocino[3,2-b]pyridine-9-carboxylic acid, 3,4,7,10-tetrahydro-8-methyl-10-(pentafluorophenyl)-2-[methyl(phenylmethyl)amino]ethyl ester 1,1,5,5-tetraoxide]: the results for the IC50 in the test with trachealis muscle tissue and at calcium channel (Tables 1-5) were 6200 nM and 49 nM, respectively. Consider `CC1=C(C(=O)OCC(=O)Oc2ccccc2)C(c2c(F)cccc2Cl)C2=C(CS(=O)(=O)CCS2(=O)=O)N1` (stereo not drawn) [Compound 67], for which the half-inhibitory concentration (IC50) at calcium channel (Tables 6-7) stood at 336 nM. On to `CC(=O)OCCCOC(=O)C1=C(C)NC2=C(C1c1c(F)cccc1Cl)S(=O)(=O)CCS(=O)(=O)C2` (stereo not drawn) [Compound 68], for which the 50% inhibitory concentration (IC50) at calcium channel (Tables 6-7) worked out at 340 nM. Still for that read-out and setting: with `CC1=C(C(=O)OCC(=O)OC(C)(C)C)C(c2c(F)cccc2Cl)C2=C(CS(=O)(=O)CCS2(=O)=O)N1` (stereo not drawn) [Compound 69, 7-methyl-9-[2-fluoro-6-chlorophenyl]-2,3,6,9-tetrahydro-1,1,4,4-tetraoxide 5H-1,4-Dithiepino[6,5-b]pyridine-8-carboxylic acid 2-(1,1-dimethylethyloxy)-2-oxoethyl ester] the figure was 356 nM; with `CC1=C(C(=O)OCc2oc(=O)oc2C)C(c2c(F)cccc2Cl)C2=C(CS(=O)(=O)CCS2(=O)=O)N1` (stereo not drawn) [Compound 73], 417 nM.

As to `CC1=C(C(=O)OCC(=O)OCCN(C)Cc2ccccc2)C(c2c(F)cccc2Cl)C2=C(CS(=O)(=O)CCS2(=O)=O)N1` (stereo not drawn) [Compound 74, 7-methyl-9-[2-fluoro-6-chlorophenyl]-2,3,6,9-tetrahydro-1,1,4,4-tetraoxide 5H-1,4-Dithiepino[6,5-b]pyridine-8-carboxylic acid carboxy-2-(1-N-methylbenzylamine)ethyl ester], on calcium channel (Tables 6-7), the half-inhibitory concentration (IC50) came to 420 nM. Still for that read-out and setting: the value for `CC1=C(C(=O)OCCOC(=O)c2ccncc2)C(c2c(F)cccc2Cl)C2=C(CS(=O)(=O)CCS2(=O)=O)N1` (stereo not drawn) [Compound 78] was 760 nM; that for `CC1=C(C(=O)OCCNC(=O)OC(C)(C)C)C(c2c(F)cccc2Cl)C2=C(CS(=O)(=O)CCS2(=O)=O)N1` (stereo not drawn) [Compound 79, 5H-[1,4]dithiepino[6,5-b]pyridine-8-carboxylic acid, 9-(2-chloro-6-fluorophenyl)-2,3,6,9-tetrahydro-7-methyl-, 2-[[(1,1-dimethylethoxy)carbonyl]amino]ethyl ester, 1,1,4,4-tetraoxide] was 768 nM; that for `CC(=O)OCCOC(=O)C1=C(C)NC2=C(C1c1c(F)cccc1Cl)S(=O)(=O)CCS(=O)(=O)C2` (stereo not drawn) [Compound 80] was 898 nM. The same measure, in the same setting: with `CC1=C(C(=O)OCCOC(=O)CNC(=O)OC(C)(C)C)C(c2c(F)cccc2Cl)C2=C(CS(=O)(=O)CCS2(=O)=O)N1` (stereo not drawn) [Compound 81] the figure was 946 nM; with `CC1=C(C(=O)OCCO)C(c2c(F)cccc2Cl)C2=C(CS(=O)(=O)CCS2(=O)=O)N1` (stereo not drawn) [Compound 82], 1000 nM; with `CC1=C(C(=O)OCCCO)C(c2c(F)cccc2Cl)C2=C(CS(=O)(=O)CCS2(=O)=O)N1` (stereo not drawn) [Compound 83], 1210 nM. `CC1=C(C(=O)OCCOC(=O)CN(C)C)C(c2c(F)cccc2Cl)C2=C(CS(=O)(=O)CCS2(=O)=O)N1` (stereo not drawn) [Compound 84]: the IC50 on calcium channel (Tables 6-7) came out at 1230 nM.

With `CC1=C(C(=O)OCCC2CCOC2=O)C(c2c(F)cccc2Cl)C2=C(CS(=O)(=O)CCS2(=O)=O)N1` (stereo not drawn) [Compound 85], the IC50 at calcium channel (Tables 6-7) worked out at 1690 nM. The same measure, in the same setting: the value for `CC(=O)OCCCOC(=O)C1=C(C)NC2=C(C1c1c(F)cccc1Cl)S(=O)(=O)CCS(=O)(=O)C2` (stereo not drawn) [Compound 86] was 2120 nM. The same measure, in the same setting: with `CC1=C(C(=O)OCCNC(=O)c2ccccc2)C(c2c(F)cccc2Cl)C2=C(CS(=O)(=O)CCS2(=O)=O)N1` (stereo not drawn) [Compound 87] the figure was 2260 nM; with `CC1=C(C(=O)OCCOC(=O)C(C)(C)C)C(c2c(F)cccc2Cl)C2=C(CS(=O)(=O)CCS2(=O)=O)N1` (stereo not drawn) [Compound 89], 3700 nM.

Turning to `CCN(CC)C(=O)COC(=O)C1=C(C)NC2=C(C1c1c(F)cccc1Cl)S(=O)(=O)CCS(=O)(=O)C2` (stereo not drawn) [Compound 90], the IC50 on calcium channel (Tables 6-7) came out at 4240 nM. In the case of `CC1=C(C(=O)OCCN)C(c2c(F)cccc2Cl)C2=C(CS(=O)(=O)CCS2(=O)=O)N1` (stereo not drawn) [Compound 91], the IC50 at calcium channel (Tables 6-7) came to 4840 nM.

Consider `CC1=C(C(=O)OCCOC(=O)C(N)C(C)C)C(c2c(F)cccc2Cl)C2=C(CS(=O)(=O)CCS2(=O)=O)N1` (stereo not drawn) [Compound 92], for which, on calcium channel (Tables 6-7), the IC50 worked out at 5800 nM.

On to `CC1=C(C(=O)OCC(N)=O)C(c2c(F)cccc2Cl)C2=C(CS(=O)(=O)CCS2(=O)=O)N1` (stereo not drawn) [Compound 93], for which the IC50 on calcium channel (Tables 6-7) turned out to be 6990 nM. The same measure, in the same setting: the value for `CC1=C(C(=O)OCCOC(=O)C(N)CCCCN)C(c2c(F)cccc2Cl)C2=C(CS(=O)(=O)CCS2(=O)=O)N1` (stereo not drawn) [Compound 96] was 51000 nM; that for `CC1=C(C(=O)OCCOC(=O)CN)C(c2c(F)cccc2Cl)C2=C(CS(=O)(=O)CCS2(=O)=O)N1` (stereo not drawn) [Compound 97] was 150000 nM; that for `CC1=C(C(=O)OCC(=O)O)C(c2c(F)cccc2Cl)C2=C(CS(=O)(=O)CCS2(=O)=O)N1` (stereo not drawn) [Compound 98, 7-methyl-9-[2-fluoro-6-chlorophenyl]-2,3,6,9-tetrahydro-1,1,4,4-tetraoxide 5H-1,4-Dithiepino[6,5-b]pyridine-8-carboxylic acid carboxymethyl ester] was 316000 nM. Take `CC1=C(C(=O)OCCOC(=O)c2ccc(OC(C)C)cc2)C(c2c(F)cccc2Cl)C2=C(CS(=O)(=O)CCCS2(=O)=O)N1` (stereo not drawn) [Compound 99, 2H,6H-[1,5]dithiocino[3,2-b]pyridine-9-carboxylic acid, 10-(2-chloro-6-fluorophenyl)-3,4,7,10-tetrahydro-8-methyl-, 2-[[4-(1-methylethoxy)benzoyl]oxy]ethyl ester, 1,1,5,5-tetraoxide]: on calcium channel (Tables 6-7), the IC50 stood at 40 nM.
